# According to patent US11814402B2, “Binuclear palladacycles and their use in the treatment of cancer” (Stellenbosch University, priority 2019, dated 2023):
# Columns and labels:
# [1] = tested on: MCF 7 breast cancer cell line tumour; assay: In vivo anti-tumour activity, MCF 7 (chick embryo model)
# Procedure: (§1) The activity of BTC2 was evaluated in two breast cancer cell lines (MCF 7 and MDA-MB-231). The latter is an aggressive, metastatic cell line in which metastasis is often difficult to prevent or control.
# (§2) Metastasis is the process of the spreading of the cancer from its site of origin to other parts of the body. This was evaluated using the same chick embryo model as mentioned above, and again compared to the known drug, paclitaxel.
# [2] = tested on: MDA-MB 231 breast cancer cell line metastasis; assay: Metastasis reduction, MDA-MB 231 (chick embryo model); type: in vivo
# Procedure: The ability of BTC2 to prevent metastasis was also evaluated.
# as §2
# When tested in the aggressive breast cancer cell line, MDA-MB 231, BTC2 was able to induce a 46% reduction in metastasis compared to 64% reduction for paclitaxel.
# [3] = tested on: human breast adenocarcinoma MCF-7 (estrogen receptor positive) cells; assay: Cytotoxicity (MTT) assay, MCF-7; type: cell-based; details: 48 hours treatment
# Procedure: (§3) These included cell viability tests using a MTT assay, and in some cases Western blots to test for DNA damage using γ-H2AX and PARP cleavage to determine whether or not apoptosis takes place.
# The complex solutions were prepared by dissolution in DMSO to obtain 5 mM stock solutions. Solutions were stored at room temperature for no more than a week. […] The 3-(4,5-dimethylthiazol-2-yl)-2,5-diphenyltetrazolium bromide (MTT) assay was then used, as described by the manufacturer's instructions: 10 μL of MTT solution was added to each well. Well plates were then incubated at 37° C. for 4 h. This was followed by addition of 100 μL solubilisation buffer (10% SDS in 0.01 M HCl) and incubation overnight at 37° C. Absorbance at 585 nm was then determined for each well and the mean cell viability was calculated as a percentage of the mean vehicle control. The experiments were performed in triplicate and the data were used to determine the half maximal inhibitory concentration values (IC50).
# [4] = Turbidimetric assay - solubility in 10% DMSO:PBS; type: physicochemical; details: for aqueous solubility (in words): aqueous media
# Procedure: A 0.01 M pH 7.4 Phosphate Buffered Saline (PBS) solution was prepared by dissolving one PBS tablet (Sigma-Aldrich) in 200 mL distilled water at 25° C. to yield a buffered solution containing 0.01 M phosphate buffer, 0.003 M KCl and 0.14 M NaCl. The solution equilibrated at 25° C. for one hour upon which the pH was confirmed.
# A preparation plate (96-well flat bottomed) was prepared by serially diluting the compound to achieve the desired concentrations (5.0 μM to 200 μM). The test plate was prepared by pipetting […] into wells 7-12. Each compound was tested in triplicate thus a single plate could be used to evaluate two compounds. […] of each compound concentration was pipetted from the preparation plate into the test plate to bring the total volume up to 200 μL and to ensure that a 10% (v/v) DMSO/PBS solution is achieved. Test plates were prepared in duplicate and one plate was incubated at room temperature (25° C.) and the second at physiological temperature (37° C.). Both test plates were incubated for 2 hours upon which the UV-Vis absorbance readings were measured at 620 nm. The corrected absorbance readings were obtained by subtracting the blank readings from each concentration absorbance.
# [5] = Solubility in DMSO and DMSO/water (characterisation data); details: for behaviour on addition of water / aqueous medium: test medium; for Solubility: DMSO: in DMSO
# [6] = tested on: human breast adenocarcinoma MDA-MB-231 (estrogen receptor negative) cells; assay: Cytotoxicity (MTT) assay, MDA-MB-231; type: cell-based; details: 48 hours treatment
# Procedure: as §3
# The complex solutions were prepared by dissolution in DMSO to obtain 5 mM stock solutions. Solutions were stored at room temperature for no more than a week. […] After 48 hours, the cells were treated with various concentrations of complex (0-1 μM) or the vehicle for 48 hours. The 3-(4,5-dimethylthiazol-2-yl)-2,5-diphenyltetrazolium bromide (MTT) assay was then used, as described by the manufacturer's instructions: 10 μL of MTT solution was added to each well. Well plates were then incubated at 37° C. for 4 h. This was followed by addition of 100 μL solubilisation buffer (10% SDS in 0.01 M HCl) and incubation overnight at 37° C. Absorbance at 585 nm was then determined for each well and the mean cell viability was calculated as a percentage of the mean vehicle control. The experiments were performed in triplicate and the data were used to determine the half maximal inhibitory concentration values (IC50).
# [7] = tested on: MDA-MB-231 breast cancer cell line tumour; assay: In vivo anti-tumour activity, MDA-MB-231 (chick embryo model); details: MDA-MB-231, about half the concentration of paclitaxel
# Procedure: as §1
# Again, BTC2 was used at about half the concentration of the control, paclitaxel.
# as §2
# γ-H2AX in MCF7 cells = assay: Western blot, γ-H2AX (DNA damage); type: cell-based, human; details: treatment for 24 and 48 hours
# Procedure: The complex solutions were prepared by dissolution in DMSO to obtain 0.1 and 0.2 μM stock solutions. Solutions were stored at room temperature for no more than a week. Human MCF7 breast adenocarcinoma cells in RPMI 1640 medium were plated in 6 cm petri dishes at 6×10^5 cells per plate. The cells were treated with the complex solutions for 24 or 48 hours. Cells were then lysed using whole cell lysis buffer (0.5 M tris-HCl, pH 6.8, 2% SDS, 10% glycerol, 1% β-mercaptoethanol and 0.02% bromophenol blue). Samples were boiled for 10 minutes. The proteins were resolved using SDS/PAGE (8-15% gels) as required. They were then transferred to Hybond ECL membranes which were then incubated with primary antibodies against PARP ½ (sc-7150), phospho-H2AX (#2577) and p38 (M000). Thereafter, the membranes were incubated with HRP-conjugated secondary antibodies (1:5000). The antibody-reactive proteins were visualised with a chemiluminescence reaction (ECL) detection system.
# The most important proteins which are employed as markers for potential anti-cancer drugs are γ-H2AX, which, if present, is an indication of DNA damage and PARP, which if cleaved, is an indication that apoptosis has been induced. In order to allow for relative quantification of the proteins being detected, a loading control, P38, was used to ensure that loading discrepancies are not interpreted as drug-induced changes.
# ME1402 melanoma cells = details: Biochem. Pharmacol. 2013, 86, 1650; read-out: IC50 proliferation ME1402 melanoma cells; cited from earlier work
# WM1158 melanoma cells = details: Biochem. Pharmacol. 2013, 86, 1650; read-out: IC50 proliferation WM1158 melanoma cells; cited from earlier work
# [8] = tested on: oestrogen receptor positive MCF7 breast cancer cells; details: prior report on AJ5; read-out: IC50 MCF-7; cited from earlier work
# [9] = tested on: oestrogen receptor negative MDA-MB-231 breast cancer cells; details: prior report on AJ5; cited from earlier work
# [10] = turbidimetric assay, 10% DMSO:PBS pH 7.4, 37° C., 2 hours incubation
compound,measurement,setting,value
CC(=O)O[C@H]1C(=O)[C@@]2(C)[C@H]([C@H](OC(=O)c3ccccc3)[C@]3(O)C[C@H](OC(=O)[C@H](O)[C@@H](NC(=O)c4ccccc4)c4ccccc4)C(C)=C1C3(C)C)[C@]1(OC(C)=O)CO[C@@H]1C[C@@H]2O [paclitaxel],tumour regression,"[1]; MCF 7, concentration 50 μM",26%
same,reduction in metastasis,"[2]; MDA-MB 231, 50 μM",64%
CC(C)c1cccc(C(C)C)c1[N+]1=Cc2cccc[c]2[Pd-2]1([Cl])[P+](c1ccccc1)(c1ccccc1)[c-]1cccc1.CC(C)c1cccc(C(C)C)c1[N+]1=Cc2cccc[c]2[Pd-2]1([Cl])[P+](c1ccccc1)(c1ccccc1)[c-]1cccc1.[Fe+2] (centres unmarked) [BC4],IC50 MCF-7,[3],Inactive
same,Solubility in 10% DMSO:PBS at 37° C.,[4]; [10],13.65 to 27.30 µg/mL
same,behaviour on addition of water / aqueous medium,[5],completely intolerant of water
same,IC50 MDA-MB-231,[6],Inactive
"[(PdCl{4-[2-(2-hydroxyethoxy)ethoxy]}CH═N{2,6-^iPr2-C6H3})2(μ-Ph2P(CH2)2PPh2)] [BTC2]",tumour regression,"[1]; MCF 7, concentration 24.5 μM",21%
same,IC50,[3],490 ± 20 nM
same,Solubility in 10% DMSO:PBS at 37° C.,[4]; [10],28.38 to 56.77 µg/mL
same,tumour reduction (in words),[7],able to induce tumour reduction
same,reduction in metastasis,"[2]; MDA-MB 231, 24.4 μM",46%
same,γ-H2AX (Western blot),γ-H2AX in MCF7 cells,significant amount of γ-H2AX
same,Solubility: % DMSO in water,[5],76 % DMSO in water
same,Solubility: DMSO,[5],32.6 mg/mL
same,IC50,[6],580 ± 12 nM
"CC(C)c1cccc(C(C)C)c1[N+]1=Cc2ccc(OCCOCCO)c[c]2[Pd-2]1([Cl])[P+](c1ccccc1)(c1ccccc1)[c-]1cccc1.CC(C)c1cccc(C(C)C)c1[N+]1=Cc2ccc(OCCOCCO)c[c]2[Pd-2]1([Cl])[P+](c1ccccc1)(c1ccccc1)[c-]1cccc1.[Fe+2] (centres unmarked) [BTC4, [(PdCl{4-[2-(2-hydroxyethoxy)ethoxy]}CH═N{2,6-^iPr2-C6H3})2(μ-Ph2P(C5H4)Fe(C5H4)PPh2]]",IC50 MCF-7,[3],Inactive
same,aqueous solubility (in words),[4],highly insoluble
same,Solubility: % DMSO in water,[5],98 % DMSO in water
same,Solubility: DMSO,[5],53.7 mg/mL
same,behaviour on addition of water / aqueous medium,[5],completely intolerant of water
same,IC50 MDA-MB-231,[6],Inactive
"[(PdCl{4-[2-(2-hydroxyethoxy)ethoxy]}CH═N{2,6-^iPr2-C6H3})2(μ-Ph2P(CH2)3PPh2)] [BTC3]",IC50,[3],2500 ± 260 nM
same,IC50,[6],2300 ± 190 nM
CC(C)c1cccc(C(C)C)c1[N+]1=Cc2cccc[c]2[Pd-2]1([Cl])[P+](C[P+](c1ccccc1)(c1ccccc1)[Pd-2]1([Cl])[c]2ccccc2C=[N+]1c1c(C(C)C)cccc1C(C)C)(c1ccccc1)c1ccccc1 (centres unmarked) [BC1],IC50,[3],2700 ± 210 nM
same,Solubility in 10% DMSO:PBS at 37° C.,[4]; [10],10.21 to 20.41 µg/mL
same,IC50,[6],2200 ± 190 nM
CC(C)c1cccc(C(C)C)c1[N+]1=Cc2cccc[c]2[Pd-2]1([Cl])[P+](CCC[P+](c1ccccc1)(c1ccccc1)[Pd-2]1([Cl])[c]2ccccc2C=[N+]1c1c(C(C)C)cccc1C(C)C)(c1ccccc1)c1ccccc1 (centres unmarked) [BC3],IC50,[3],5800 ± 280 nM
same,Solubility in 10% DMSO:PBS at 37° C.,[4]; [10],6.12 to 12.25 µg/mL
same,IC50,[6],5000 ± 75 nM
CC(C)c1cccc(C(C)C)c1[N+]1=Cc2cccc[c]2[Pd-2]1([Cl])[P+](CC[P+](c1ccccc1)(c1ccccc1)[Pd-2]1([Cl])[c]2ccccc2C=[N+]1c1c(C(C)C)cccc1C(C)C)(c1ccccc1)c1ccccc1 (centres unmarked) [AJ5],IC50,ME1402 melanoma cells,190 nM
same,IC50,[3],180 ± 48 nM
same,aqueous solubility (in words),[4],poor solubility
same,Solubility in 10% DMSO:PBS at 37° C.,[4]; [10],5.98 to 11.97 µg/mL
same,IC50,WM1158 melanoma cells,200 nM
same,IC50,[8],175 nM
same,IC50,[6],190 ± 15 nM
same,IC50,[9],193 nM
"CC(C)c1cccc(C(C)C)c1[N+]1=Cc2ccc(OCCO)c[c]2[Pd-2]1([Cl])[P+](CC[P+](c1ccccc1)(c1ccccc1)[Pd-2]1([Cl])[c]2cc(OCCO)ccc2C=[N+]1c1c(C(C)C)cccc1C(C)C)(c1ccccc1)c1ccccc1 (centres unmarked) [BTC5, [(PdCl{4-(2-hydroxyethoxy})CH═N{2,6-^iPr2-C6H3})2(μ-Ph2P(CH2)2PPh2)]]",solubility at 2 h,"[4]; 10% DMSO:phosphate buffered saline, aqueous with cosolvent or surfactant or cyclodextrin, kinetic from dmso stock, turbidimetric assay, 10% DMSO:PBS pH 7.4, 37° C., 2 hours incubation",13.3 to 26.6 µg/mL
